# Reference: US11407721B2, “CIS-morpholinone and other compounds as MDM2 inhibitors for the treatment of cancer” (AMGEN INC., priority 2013, dated 2022)
# Molecular target: interaction between HDM2 and p53 (GST-hMDM2 (1-188) / biotinylated-p53 (1-83)) (Homo sapiens (Human), UniProt Q00987)
# Experiment: HTRF2 Assay (improved HTRF assay)
# Type: binding
# Details: 0.2 nM GST-hMDM2 (1-188), 0.5 nM biotinylated-p53 (1-83), 100 mM KF; read-out: HTRF2 IC50
# interaction between HDM2 and p53 (GST-hMDM2 (1-188) / biotinylated-p53 (1-83)), sequence (Q00987 1-188): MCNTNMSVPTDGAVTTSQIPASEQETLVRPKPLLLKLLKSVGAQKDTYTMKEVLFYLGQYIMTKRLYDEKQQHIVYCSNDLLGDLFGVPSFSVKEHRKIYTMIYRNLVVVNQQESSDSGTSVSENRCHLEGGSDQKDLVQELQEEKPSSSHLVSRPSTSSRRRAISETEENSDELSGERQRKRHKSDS
row,Structure (SMILES),IC50 [nM]
1,"O=C1CO[C@@H](c2ccc(Cl)cc2)[C@@H](c2ccc(Cl)cc2)N1c1cc(Cl)nc(Cl)c1 [(5R,6S)-5,6-bis(4-chlorophenyl)-4-(2,6-dichloro-4-pyridinyl)-3-morpholinone]",63000
2,"O=C1CO[C@@H](c2ccc(Cl)cc2)[C@@H](c2ccc(Cl)cc2)N1c1ccnc(Cl)c1 [(5R,6S)-5,6-bis(4-chlorophenyl)-4-(2-chloro-4-pyridinyl)-3-morpholinone]",7180
3,"O=C1CO[C@@H](c2ccc(Cl)cc2)[C@@H](c2ccc(Cl)cc2)N1c1cnccn1 [(5R,6S)-5,6-bis(4-chlorophenyl)-4-(2-pyrazinyl)-3-morpholinone]",9300
4,"CCC[C@H](C(=O)O)N1C(=O)[C@H](Cc2ccccc2)O[C@@H](c2ccc(Cl)cc2)[C@H]1c1ccc(Cl)cc1 [Example 44, (R)-2-((2S,5R,6S)-2-Benzyl-5,6-bis(4-chlorophenyl)-3-oxomorpholino)pentanoic acid]",757
5,"CCC[C@H](C(=O)O)N1C(=O)[C@H](Cc2ccc(F)cc2C#N)O[C@@H](c2ccc(Cl)cc2)[C@H]1c1ccc(Cl)cc1 [Example 45, (R)-2-((2S,3R,6S)-2,3-Bis(4-chlorophenyl)-6-(2-cyano-4-fluorobenzyl)-5-oxomorpholino)pentanoic acid]",466
6,"CCC[C@H](C(=O)O)N1C(=O)[C@H](Cc2ccccc2C#N)O[C@@H](c2ccc(Cl)cc2)[C@H]1c1ccc(Cl)cc1 [Example 46, (R)-2-((2S,3R,6S)-2,3-Bis(4-chlorophenyl)-6-(2-cyanobenzyl)-5-oxomorpholino)pentanoic acid]",259
7,"CCC[C@H](C(=O)O)N1C(=O)[C@H](Cc2ccccc2F)O[C@@H](c2ccc(Cl)cc2)[C@H]1c1ccc(Cl)cc1 [Example 47, (R)-2-((2S,3R,6S)-2,3-Bis(4-chlorophenyl)-6-(2-fluorobenzyl)-5-oxomorpholino)pentanoic acid]",400
8,"CCC[C@H](C(=O)O)N1C(=O)[C@H](Cc2cccc(F)c2)O[C@@H](c2ccc(Cl)cc2)[C@H]1c1ccc(Cl)cc1 [Example 48, (R)-2-((2S,3R,6S)-2,3-Bis(4-chlorophenyl)-6-(3-fluorobenzyl)-5-oxomorpholino)pentanoic acid]",420
9,"CCC[C@H](C(=O)O)N1C(=O)[C@H](Cc2cccc(C#N)c2)O[C@@H](c2ccc(Cl)cc2)[C@H]1c1ccc(Cl)cc1 [Example 49, (R)-2-((2S,3R,6S)-2,3-Bis(4-chlorophenyl)-6-(3-cyanobenzyl)-5-oxomorpholino)pentanoic acid]",561
10,"CCC[C@H](C(=O)O)N1C(=O)[C@H](Cc2cccc(S(C)(=O)=O)c2)O[C@@H](c2ccc(Cl)cc2)[C@H]1c1ccc(Cl)cc1 [Example 50, (R)-2-((2S,3R,6S)-2,3-Bis(4-chlorophenyl)-6-(3-(methylsulfonyl)benzyl)-5-oxomorpholino)pentanoic acid]",568
11,"CCC[C@H](C(=O)O)N1C(=O)[C@H](Cc2ccccc2S(C)(=O)=O)O[C@@H](c2ccc(Cl)cc2)[C@H]1c1ccc(Cl)cc1 [Example 51, (R)-2-((2S,3R,6S)-2,3-Bis(4-chlorophenyl)-6-(2-(methylsulfonyl)benzyl)-5-oxomorpholino)pentanoic acid]",676
12,"CCC[C@H](C(=O)O)N1C(=O)[C@H](Cc2ccc(F)cc2S(C)(=O)=O)O[C@@H](c2ccc(Cl)cc2)[C@H]1c1ccc(Cl)cc1 [Example 52, (R)-2-((2S,3R,6S)-2,3-Bis(4-chlorophenyl)-6-(4-fluoro-2-(methylsulfonyl)benzyl)-5-oxomorpholino)pentanoic acid]",279
13,"CCC[C@H](C(=O)O)N1C(=O)[C@H](Cc2ccc(S(C)(=O)=O)c(F)c2)O[C@@H](c2ccc(Cl)cc2)[C@H]1c1ccc(Cl)cc1 [Example 53, (R)-2-((2S,3R,6S)-2,3-Bis(4-chlorophenyl)-6-(3-fluoro-4-(methylsulfonyl)benzyl)-5-oxomorpholino)pentanoic acid]",276
14,"CCC[C@H](C(=O)O)N1C(=O)[C@H](Cc2ccc(S(C)(=O)=O)cc2)O[C@@H](c2ccc(Cl)cc2)[C@H]1c1ccc(Cl)cc1 [Example 54, (R)-2-((2S,3R,6S)-2,3-Bis(4-chlorophenyl)-6-(4-(methylsulfonyl)benzyl)-5-oxomorpholino)pentanoic acid]",196
15,"CCC[C@H](C(=O)O)N1C(=O)[C@H](Cc2ccc(S(C)(=O)=O)cc2C#N)O[C@@H](c2ccc(Cl)cc2)[C@H]1c1ccc(Cl)cc1 [Example 55, (R)-2-((2S,3R,6S)-2,3-Bis(4-chlorophenyl)-6-(2-cyano-4-(methylsulfonyl)benzyl)-5-oxomorpholino)pentanoic acid]",179

# Now from value to compound:
row,IC50 [nM],Structure (SMILES)
1,2440,"CCC[C@H](C(=O)NCCCC(=O)O)N1C(=O)[C@H](Cc2ccc(S(C)(=O)=O)cc2)O[C@@H](c2ccc(Cl)cc2)[C@H]1c1ccc(Cl)cc1 [4-(((2R)-2-((2S,3R,6S)-2,3-bis(4-chlorophenyl)-6-(4-(methylsulfonyl)benzyl)-5-oxo-4-morpholinyl)pentanoyl)amino)butanoic acid]"
2,1730,"CCC[C@H](C(=O)O)N1C(=O)[C@H](CCN2CCCCC2)O[C@@H](c2ccc(Cl)cc2)[C@H]1c1ccc(Cl)cc1 [(2R)-2-((2S,3R,6S)-2,3-bis(4-chlorophenyl)-5-oxo-6-(2-(1-piperidinyl)ethyl)-4-morpholinyl)pentanoic acid]"
3,790,"CCC[C@H](C(=O)O)N1C(=O)[C@H](CCN2CCN(C)CC2)O[C@@H](c2ccc(Cl)cc2)[C@H]1c1ccc(Cl)cc1 [(2R)-2-((2S,3R,6S)-2,3-bis(4-chlorophenyl)-6-(2-(4-methyl-1-piperazinyl)ethyl)-5-oxo-4-morpholinyl)pentanoic acid]"
4,1490,"CCC[C@H](C(=O)O)N1C(=O)[C@H](CCN2CCOCC2)O[C@@H](c2ccc(Cl)cc2)[C@H]1c1ccc(Cl)cc1 [(2R)-2-((2S,3R,6S)-2,3-bis(4-chlorophenyl)-6-(2-(4-morpholinyl)ethyl)-5-oxo-4-morpholinyl)pentanoic acid]"
5,496,"CCC[C@H](C(=O)O)N1C(=O)[C@H](Cc2ccccc2OC)O[C@@H](c2ccc(Cl)cc2)[C@H]1c1ccc(Cl)cc1 [(2R)-2-((2S,3R,6S)-2,3-bis(4-chlorophenyl)-6-(2-methoxybenzyl)-5-oxo-4-morpholinyl)pentanoic acid]"
6,973,"CCC[C@H](C(=O)O)N1C(=O)[C@H](CCCn2ccnc2)O[C@@H](c2ccc(Cl)cc2)[C@H]1c1ccc(Cl)cc1 [(2R)-2-((2S,3R,6S)-2,3-bis(4-chlorophenyl)-6-(3-(1H-imidazol-1-yl)propyl)-5-oxo-4-morpholinyl)pentanoic acid]"
7,3010,"CCC[C@H](C(=O)O)N1C(=O)[C@H](CCCO)O[C@@H](c2ccc(Cl)cc2)[C@H]1c1ccc(Cl)cc1 [(2R)-2-((2S,3R,6S)-2,3-bis(4-chlorophenyl)-6-(3-hydroxypropyl)-5-oxo-4-morpholinyl)pentanoic acid]"
8,1110,"CCC[C@H](C(=O)O)N1C(=O)[C@H](Cc2cccc(OC)c2)O[C@@H](c2ccc(Cl)cc2)[C@H]1c1ccc(Cl)cc1 [(2R)-2-((2S,3R,6S)-2,3-bis(4-chlorophenyl)-6-(3-methoxybenzyl)-5-oxo-4-morpholinyl)pentanoic acid]"
9,1150,"CCC[C@H](CC(=O)O)N1C(=O)[C@@H](Cc2ccc(F)cc2)O[C@H](c2cccc(Cl)c2)[C@@H]1c1ccc(Cl)cc1 [(3R)-3-((2R,3S,6R)-2-(3-chlorophenyl)-3-(4-chlorophenyl)-6-(4-fluorobenzyl)-5-oxo-4-morpholinyl)hexanoic acid]"
10,3660,"CCC[C@H](CC(=O)O)N1C(=O)[C@H](Cc2ccc(F)cc2)O[C@@H](c2cccc(Cl)c2)[C@H]1c1ccc(Cl)cc1 [(3R)-3-((2S,3R,6S)-2-(3-chlorophenyl)-3-(4-chlorophenyl)-6-(4-fluorobenzyl)-5-oxo-4-morpholinyl)hexanoic acid]"
11,4140,"CCC[C@H](CCC(=O)O)N1C(=O)CO[C@H](c2ccc(Cl)cc2)[C@@H]1c1ccc(Cl)cc1 [(4R)-4-((2R,3S)-2,3-bis(4-chlorophenyl)-5-oxo-4-morpholinyl)heptanoic acid]"
12,24700,"CCC[C@H](CCC(=O)O)N1C(=O)CO[C@@H](c2ccc(Cl)cc2)[C@H]1c1ccc(Cl)cc1 [(4R)-4-((2S,3R)-2,3-bis(4-chlorophenyl)-5-oxo-4-morpholinyl)heptanoic acid]"

# Same assay, conditions: read-out: HTRF2 IC50
row,IC50 [nM],Structure (SMILES)
1,1330,"CCC[C@H](CCC(=O)O)N1C(=O)[C@H](Cc2ccc(F)cc2)O[C@@H](c2ccc(Cl)cc2)[C@H]1c1ccc(Cl)cc1 (mixture of isomers) [Example 31, (R)-4-((2S,3R,6S)-2,3-Bis(4-chlorophenyl)-6-(4-fluorobenzyl)-5-oxomorpholino)heptanoic acid and (S)-4-((2R,3S,6R)-2,3-bis(4-chlorophenyl)-6-(4-fluorobenzyl)-5-oxomorpholino)heptanoic acid]"
2,20000,"CS(=O)(=O)c1ccc(C[C@@H]2O[C@@H](c3ccc(Cl)cc3)[C@@H](c3ccc(Cl)cc3)N(c3cccnc3)C2=O)c(F)c1 (mixture of isomers) [Example 63, (2S,5R,6S)-5,6-Bis(4-chlorophenyl)-2-(2-fluoro-4-(methylsulfonyl)benzyl)-4-(pyridin-3-yl)morpholin-3-one and (2R,5S,6R)-5,6-bis(4-chlorophenyl)-2-(2-fluoro-4-(methylsulfonyl)benzyl)-4-(pyridin-3-yl)morpholin-3-one]"
3,5000,"O=C1[C@H](Cc2ccc(F)cc2)O[C@@H](c2ccc(Cl)cc2)[C@@H](c2ccc(Cl)cc2)N1c1ccnc(Cl)c1 (racemic) [Example 58, (2S,5R,6S)-5,6-Bis(4-chlorophenyl)-4-(2-chloropyridin-4-yl)-2-(4-fluorobenzyl)morpholin-3-one and (2R,5S,6R)-5,6-bis(4-chlorophenyl)-4-(2-chloropyridin-4-yl)-2-(4-fluorobenzyl)morpholin-3-one]"
4,15800,"CS(=O)(=O)c1ccc(C[C@@H]2O[C@@H](c3ccc(Cl)cc3)[C@@H](c3ccc(Cl)cc3)N(c3cccnc3)C2=O)cc1 (racemic) [Example 62, (2S,5R,6S)-5,6-Bis(4-chlorophenyl)-2-(4-(methylsulfonyl)benzyl)-4-(pyridin-3-yl)morpholin-3-one and (2R,5S,6R)-5,6-bis(4-chlorophenyl)-2-(4-(methylsulfonyl)benzyl)-4-(pyridin-3-yl)morpholin-3-one]"
